Reference: patent publication US6025387A, “Gastroprotective flavone/flavanone compounds with therapeutic effect on inflammatory bowel disease” (Dong a Pharmaceutical Co., Ltd., priority 1996, dated 2000)
Converted amounts (≈) assume the structure as drawn.

Legend:
[1] = tested on: gastric mucosal damage induced by ethanolic HCl; assay: Gastritis model induced with ethanolic-HCl; type: in vivo, SD male rat; conditions: po, 1 h, rat; for inhibition in vivo at 0.3 mg/kg: 0.3 mg/kg p.o.; for inhibition in vivo at 1 mg/kg: 1 mg/kg p.o.; for inhibition in vivo at 3 mg/kg: 3 mg/kg p.o.
Procedure: Effect on the Gastritis Model Induced with Ethanolic-HCl.
SD male rat(250-350 g) was fasted for 24 hours. The compound was orally administered in suspension of 5% HPMC, and after 1 hour 1.5 mL of 150 mM HCl-80% ethanol was orally administered. After 1 hour the rat was sacrifieced and the stomach was extracted and the ulcer index was measured. The ulcer index was shown by the area of hemorrhage lesion(Mizui, T, et al., Jpn. J. Pharmacol. 1983, 33: 939).

[2] = tested on: gastric mucus secretion; assay: Measurement of gastric mucus; type: in vivo, SD male rat; conditions: oral, rat
Procedure: Measurement of Gastric Mucus
The compound was orally administered into SD male rat (200~250 g). After 1 hour the stomach was extracted. The extracted stomach was immediately washed with 10 mL of cold 0.25M sucrose solution. The gastric mucosa was dyed with 0.1% alcian blue solution for 2 hours. After dyeing, the gastric mucosa was washed with 0.25M sucrose solution twice for 15 minutes and for 45 minutes. The dyed gastric mucosa was treated with 10 mL of 30% dioctyl sodium sulfosuccinate solution for 2 hours to extract dyed mucus completely and optical density of aqueous phase was measured spectrophotometrically at 655 nm. The amount of mucus in the gastric mucosa was shown as the amount of alcian blue after calibration (Kitagawa, H., et al., Drug Res. 1986, 36: 1240-1244).

[3] = tested on: neutrophils; assay: Luminol-dependent chemiluminescence of neutrophils induced by FMLP; type: cell-based; conditions: Neutrophil, 1 μM FMLP, 0.07 mM luminol; read-out: IC50, inhibition of chemiluminescence generated by neutrophil activation
Procedure: Measurement of luminol-dependent chemiluminescencei iof neutrophil induced by FMLP.
20 mL of 12% sodium caseinate-0.9% saline was administered intraperitoneally (Newsby, A. C., Biochem. J., 1980, 186: 907,. After 20 hours, the intraperitoneal exudate was extracted under ether anesthesia. The exudate was centrifuged, and erythrocytes were removed by hypotonic lysis, and then neutrophil was washed. Neutrophil was ascertained by Wright's dyeing method, and viability was measured by Trypan blue exclusion test. Chemiluminescence was measured by Topcount (Packard Co.). The suspension of 1.5×10^6 of granulocytes, 1 μM of FMLP, 0.07 mM of luminol and the compound in HBSS was used (Dahlgren, C., et al., Infect. Immun., 1985 47: 326-328).
**IC50 (μg/mL): Concentration of the compound at inhibiting
chemiluminescence generated by neutrophil activation to 50%

[4] = tested on: cyclooxygenase; assay: Cyclooxygenase activity in HUVEC (PGF1 α synthesis); type: cell-based
Procedure: (§1) Measurment of Cyclooxygenase Actvity
(§2) After addition of the compound to cultured HUVEC, the HUVEC was incubated at 37° C., for 30 minutes, then arachidonic acid (final concentration: 30 .rho.M) was added, and the HUVEC was additionally incubated at 37° C. for 15 minutes. The culture medium was taken, and the activity of cyclooxygenase for 6-Keto-PGF1 α or PGE2 was measured by radioimmunoassay (Mitchell, J. A., et al., Pro. Natl. Acad. Sci. USA 1994, 90: 11693-11697).
**SC200 (ug/mL) : Concentration at increasing generation of […]

[5] = tested on: cyclooxygenase; assay: Cyclooxygenase activity in HUVEC (PGE2 synthesis); type: cell-based
Procedure: as §1, §2
**SC200 (μg/mL) : Concentration at increasing generation of […]

[6] = target: T1, 5-lipoxygenase (Rattus norvegicus, UniProt P12527); assay: 5-lipoxygenase activity (LTB4 in A23187-stimulated peritoneal neutrophils); type: cell-based
T1 construct: endogenous in cells; host or cells: casein-elicited rat peritoneal neutrophils
T1 sequence (P12527 1-673): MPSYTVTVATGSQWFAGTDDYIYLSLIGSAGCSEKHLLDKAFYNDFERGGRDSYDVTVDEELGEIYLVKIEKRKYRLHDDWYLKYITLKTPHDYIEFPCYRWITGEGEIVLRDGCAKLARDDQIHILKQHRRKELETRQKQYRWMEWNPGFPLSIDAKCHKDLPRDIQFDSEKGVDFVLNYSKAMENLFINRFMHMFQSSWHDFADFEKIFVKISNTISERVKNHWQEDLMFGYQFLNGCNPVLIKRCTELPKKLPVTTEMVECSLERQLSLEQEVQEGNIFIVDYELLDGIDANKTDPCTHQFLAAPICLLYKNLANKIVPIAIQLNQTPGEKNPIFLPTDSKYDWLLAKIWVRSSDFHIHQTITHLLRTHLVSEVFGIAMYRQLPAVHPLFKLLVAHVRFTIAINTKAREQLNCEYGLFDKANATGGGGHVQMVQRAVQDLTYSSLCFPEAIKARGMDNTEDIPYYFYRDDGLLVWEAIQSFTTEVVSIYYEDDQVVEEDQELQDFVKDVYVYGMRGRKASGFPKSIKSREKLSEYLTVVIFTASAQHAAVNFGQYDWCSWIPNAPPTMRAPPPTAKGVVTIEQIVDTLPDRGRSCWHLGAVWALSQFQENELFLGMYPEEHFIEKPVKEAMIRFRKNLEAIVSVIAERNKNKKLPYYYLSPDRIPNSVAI
Procedure: Measurement of 5-lipooxygenase Activity
Modified Safayhi et al.'s method (Safayhi, H., et al., Biochem. Pharmacol. 1985, 34: 2691) was used to this experiment. Peritoneal neutrophil was separated from the rat which was treated with casein solution. The compound was added to 10^7 cells (5×10^6 cells/mL, 2 mL) of neutrophil after 2 minutes Ca^2+ -ionophore, A23187 (1 μg/mL) was added and the mixture was incubared at 37° C. for 10 minutes. The reaction mixture was centrifuged and the supermatant was taken up. The amount of LTB4 in the supermatant was measured by radioimmunoassay.

[7] = tested on: gastric mucosal damage induced by NSAIDs; conditions: NSAID-induced; cited from earlier work
[8] = tested on: gastric ulcer induced by NSAIDs; conditions: clinical; cited from earlier work
[9] = tested on: epidermal cells of mucous membrane in gastrointestinal tracts; conditions: cited from earlier work
[10] = tested on: leukocytes; conditions: cited from earlier work
[11] = tested on: gastric mucosa; conditions: U.S. Pat. No. 5,399,584; cited from earlier work
[12] = tested on: experimental ulceration; conditions: various kinds of ulcerogens; cited from earlier work
[13] = tested on: gastritis and gastric ulcer; conditions: in vivo; cited from earlier work

Compound: COc1ccc(-c2cc(=O)c3c(O)c(OC)c(O)cc3o2)cc1OC [5,7-dihydroxy-3',4',6-trimethoxy flavone]
- inhibition in vivo at 0.3 mg/kg [1]: 58%
- inhibition in vivo at 1 mg/kg [1]: 64%
- inhibition in vivo at 3 mg/kg [1]: 80%
- gastric mucus secretion, % Control ([2]; 0.3 mg/kg): 132.2 % Control
- gastric mucus secretion, % Control ([2]; 3 mg/kg): 130.7 % Control
- gastric mucus secretion, % Control ([2]; 30 mg/kg): 116.8 % Control
- IC50 [3]: 0.463 µg/mL (≈ 1.34 µM)
- SC200, concentration increasing generation of PGF1α to 200% [4]: 3.4 µg/mL
- SC200, concentration increasing generation of PGE2 to 200% [5]: 2.4 µg/mL
- IC50 [6]: 13.1 µM

Compound: catalase
- reduction of gastric mucosal damage [7]: significantly reduce the extent of gastric mucosal damage induced by NSAIDs

Compound: CCCCC(C)(O)C/C=C/[C@H]1[C@H](O)CC(=O)[C@@H]1CCCCCCC(=O)OC (mixture of isomers) [misoprostol]
- prevention of NSAID-induced gastric ulcer [8]: prevented the gastric ulcer induced by NSAIDs

Compound: COc1ccc2[nH]c([S+]([O-])Cc3ncc(C)c(OC)c3C)nc2c1 (stereo not drawn) [omeprazole]
- effect of long-term administration to rats [9]: caused dysplasia in epidermal cells of mucous membrane in gastrointestinal tracts

Compound: COc1ccc2c(c1)c(CC(=O)O)c(C)n2C(=O)c1ccc(Cl)cc1 [indomethacin]
- leukocyte adherence to vascular endothelium [10]: induce adherence of leukocytes to the vascular endothelium

Compound: COc1ccc(-c2cc(=O)c3c(OC)c(OC)c(OCC(=O)O)cc3o2)cc1OC [7-carboxymethyloxy-3',4',5,6-tetramethoxy flavone]
- inhibition in vivo at 0.3 mg/kg [1]: 54%
- inhibition in vivo at 1 mg/kg [1]: 77%
- inhibition in vivo at 3 mg/kg [1]: 84%
- gastric mucus secretion, % Control ([2]; 0.3 mg/kg): 120 % Control
- gastric mucus secretion, % Control ([2]; 3 mg/kg): 130 % Control
- gastric mucus secretion, % Control ([2]; 30 mg/kg): 139 % Control
- IC50 [3]: 1.57 µg/mL (≈ 3.77 µM)
- SC200, concentration increasing generation of PGF1α to 200% [4]: 11.09 µg/mL
- SC200, concentration increasing generation of PGE2 to 200% [5]: 15.76 µg/mL
- IC50 [6]: 140 µM

Compound: COc1cccc2oc(-c3ccc(F)cc3)cc(=O)c12 [4'-fluoro-5-methoxy flavone]
- protective effect on damage of gastric mucosa [11]: protective effect on the damage of gastric mucosa

Compound: CCCCC[C@H](O)/C=C/[C@H]1[C@H](O)CC(=O)[C@@H]1C/C=C\CCCC(=O)O [PGE2]
- prevention of experimental ulceration [12]: effectively prevent the experimental ulceration

Compound: sucralfate
- frequency of recurrence [13]: low frequency of recurrence
